Read-outs that look alike come from different tables or passages of the source.
Columns and labels:
[1] = biological target: T1, PPP1R15A-PP1 complex (Homo sapiens, UniProt O75807); assay: SPR steady-state binding to R15A-PP1 holophosphatase
T1 construct: cDNAs encoding amino acids 325-636 of PPP1R15A and 340-698 of PPP1R15B were His-tagged and cloned into pMAL-c5x; made in house; host or cells: R15A: E. coli BL21-Gold (pMAL-c5x); PP1γ: Sf9 insect cells (baculovirus, pDW464)
Procedure: PPP1R15A^325-636 and PPP1R15B^340-698 were expressed and purified as follows: the cDNAs encoding amino acids 325-636 of PPP1R15A and 340-698 of PPP1R15B were His-tagged and cloned into pMAL-c5x. Recombinant PPP1R15A/B were expressed in BL21-Gold cells and purified by affinity chromatography on a HisTrap HP column (GE Healthcare), followed by a MBPTrap HP column (GE Healthcare). The proteins were analyzed on BOLT SDS-PAGE 4-12% Bis-Tris gels (Life Technologies) stained with SimplyBlue SafeStain (Life Technologies). cDNA encoding for human PP1γ was cloned into the baculovirus transfer vector pDW464 to add a biotin acceptor peptide (BAP). The vector also encodes for the E. coli biotin holoenzyme synthetase (BirA), so that BAP-tagged proteins can be biotinylated in vivo in Spodoptere frugiperda (Sf9) insect cells (Duffy et al., Anal. Biochem., 262, 122-128, 1998). The Bac-to-Bac baculovirus expression system (Life Technologies) was used to generate the recombinant bacmid DNA and Sf9 insect cells were used to amplify the viral stocks Cultures were harvested by centrifuging at 1,200 g for 15 minutes, cell pellets were resuspended in lysis buffer (50 mM Tris pH 7.4, 150 mM NaCl, 0.2% Triton, 5% Glycerol, 1 PiC tablet (Roche) per 50 ml and 0.2 mM PMSF) and followed by gentle sonication. The protein was first purified on a 5 ml HiTrap Q HP column (GE Healthcare) followed by a HiLoad 16/600 Superdex 200 column (GE Healthcare). The positive fractions confirmed by SDS-PAGE and western blot were pooled, concentrate to ˜1 μM and stored at −80° C.
A Biacore T200 (GE Healthcare) system was used for all experiments and biotinylated PP1 was captured using a Sensor Chip SA (GE Healthcare, catalog no BR-1005-31). The streptavidin coated surface was activated by 1 min injection with a solution of 50 mM NaOH and 1 M NaCl. Biotin-PP1 was diluted in the running buffer (50 mM Tris pH 7.5, 100 mM NaCl, 0.1 mM EGTA, 1 mM MnCl2, 0.05% Tween 20) and injected at approximately 300 nM concentration directly to streptavidin coated surface for 100 sec or to reach immobilization level of biotin-PP1 corresponding to ˜7000 RU. A blank immobilization was performed for one of the SA sensor chip surface to use as a reference.
With minor deviations, the same procedure and conditions were used in all binding experiments. Small molecules were stored as 50 mM stock solutions in 100% DMSO. Prior to determining binding constants, serial dilutions of either 12 or 8 concentrations of the compounds were prepared in the running buffer in a 96-well plate. Prior to each compound dilution series the regulatory subunit, R15A or R15B, was diluted to […] in the running buffer and captured on the biotin-PP1 surface, to form the holophosphatase complex on the sensor chip surface. Then, without regenerating the surface, the compound dilution series was injected onto the surface of the chip Sensorgrams were analyzed using the Biacore T200 evaluation software and the binding constants determined based on a steady-state model. Kinetic experiments are carried out using different concentrations of the compound and their respective equilibrium binding levels determined.
Surface Plasmon Resonance (SPR) was used to measure the binding affinity of compounds to the PPP1R15A/B-PP1 phosphatase complex. Biotin acceptor peptide (BAP) was fused to the N-terminus of PP1γ, which enables the biotinylation of the BAP-tagged protein in Sf9 insect cells. After purification the BAP-PP1γ protein was captured on a streptavidin sensor chip (SA-chip, GE healthcare) to a response level of ˜5.000 RU. Using controlled biotinylation enables orientated and uniform immobilization on the sensor chip surface. The PP1γ was then used to capture PPP1R15A/B and form a holophosphatase complex on the surface of the streptavidin chip. This complex can then be used to test binding of compounds. 10 μM PPP1R15A/B protein concentration was used to form the holophosphatase complex during a 80 s injection. […]

[2] = system: R15A or R15B; assay: Selective binding towards R15A or R15B (based on SPR); parameters: species or system human
Procedure: In one embodiment, the compounds of formula IB inhibit PPP1R15A and PPP1R15B. Inhibition of PPP1R15A and PPP1R15B can be determined from binding analysis. For example, binding can be analysed using SPR (surface plasmon resonance) to obtain KD values. A PPP1R15A and PPP1R15B inhibitor may be defined as a compound where the difference in KD values between R15A and R15B is no more than about 3 fold.
Small molecules were stored as 50 mM stock solutions in 100% DMSO. Prior to determining binding constants, serial dilutions of either 12 or 8 concentrations of the compounds were prepared in the running buffer in a 96-well plate. Prior to each compound dilution series the regulatory subunit, MBP-R15A^325-636-His or MBP-R15B^340-698-His, was diluted to 10 μM in the running buffer and captured on the bio-PP1c surface at a flow rate of 30 μl/min for 1 minute to form the holophosphatase complex on the sensor chip surface. This was followed by 1 minute stabilization period, to wash off any unspecific binding. Then, without regenerating the surface, the compound dilution series was injected onto the surface of the chip at a flow rate of 30 μl/min for 1 minute, followed by 2 minutes dissociation time. After each dilution series the surface was regenerated using 3 M NaCl for 90 seconds. After regeneration, SPR responses generally returned to base levels and the bio-PP1c surface was ready for the next compound dilution series. In order to be able to correct for small variations in DMSO concentration between samples, eight solvent samples ranging from 0.06 to 8% DMSO were injected every 50th cycle. The flow cell temperature was 10° C.
Sensorgrams were analyzed using the Biacore T200 evaluation software and the binding constants determined based on a steady-state model. Kinetic experiments are carried out using different concentrations of the compound and their respective equilibrium binding levels determined.

[3] = SPR steady-state, MBP-R15A325-636-His captured on bio-PP1c, 10° C., read-out: R15A (KD)

T1 sequence (O75807 325-636): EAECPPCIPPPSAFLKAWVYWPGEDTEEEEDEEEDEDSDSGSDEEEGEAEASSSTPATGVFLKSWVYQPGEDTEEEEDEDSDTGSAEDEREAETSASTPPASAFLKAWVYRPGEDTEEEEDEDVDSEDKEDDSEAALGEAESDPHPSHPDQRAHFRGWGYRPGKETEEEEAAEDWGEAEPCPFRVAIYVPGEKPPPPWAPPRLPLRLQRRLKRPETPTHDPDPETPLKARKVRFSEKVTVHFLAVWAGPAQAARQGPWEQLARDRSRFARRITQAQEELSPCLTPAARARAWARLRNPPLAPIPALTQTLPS
T1 sequence (P36873 whole entry partner, the tested form may be a part): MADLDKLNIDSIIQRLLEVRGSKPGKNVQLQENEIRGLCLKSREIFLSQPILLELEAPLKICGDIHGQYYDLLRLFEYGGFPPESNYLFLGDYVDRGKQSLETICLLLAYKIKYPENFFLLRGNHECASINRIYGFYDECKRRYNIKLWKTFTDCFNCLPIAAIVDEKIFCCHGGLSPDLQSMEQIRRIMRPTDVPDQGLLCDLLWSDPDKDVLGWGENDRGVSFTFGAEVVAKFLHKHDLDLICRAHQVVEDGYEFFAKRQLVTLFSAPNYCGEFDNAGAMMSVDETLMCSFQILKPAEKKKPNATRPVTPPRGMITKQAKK

Structure (SMILES) | Kd [1, 3] | Selective binding towards R15A or R15B (based on SPR) [2] | Kd ([1]; SPR, FIG. 1, read-out: KD for PPP1R15A-PP1)
[H]/N=C(\N)NN=Cc1cccc(Cl)c1F [Compound 30, (E)-2-(3-chloro-2-fluorobenzylidene)hydrazine-1-carboximidamide] | 5.15 ± 1.7 µM | R15AB (A PPP1R15A and PPP1R15B inhibitor may be defined as a compound where the difference in KD values between R15A and R15B is no more than about 3 fold) | 
[H]/N=C(\N)NN=Cc1cccc(Cl)c1Cl [Compound 16, (E)-2-(2,3-dichlorobenzylidene)hydrazine-1-carboximidamide] | 1.05 ± 0.013 µM | R15B (A “selective inhibitor” may be defined as a compound where the difference in KD values between R15A and R15B is greater than 3 fold) | 1 µM
[H]/N=C(\N)NN=Cc1cccc(F)c1 [Compound 23, (E)-2-(3-fluorobenzylidene)hydrazine-1-carboximidamide] | 1.42 µM | R15AB (A PPP1R15A and PPP1R15B inhibitor may be defined as a compound where the difference in KD values between R15A and R15B is no more than about 3 fold) | 
[H]/N=C(\N)NN=Cc1ccccc1F [Compound 17, (E)-2-(2-fluorobenzylidene)hydrazine-1-carboximidamide] | 13 ± 0.5 µM | R15AB (A PPP1R15A and PPP1R15B inhibitor may be defined as a compound where the difference in KD values between R15A and R15B is no more than about 3 fold) | 
[H]/N=C(\N)NN=Cc1ccc(F)c(Cl)c1 [Compound 15, (E)-2-(3-chloro-4-fluorobenzylidene)hydrazine-1-carboximidamide] | 11.2 µM | R15AB (A PPP1R15A and PPP1R15B inhibitor may be defined as a compound where the difference in KD values between R15A and R15B is no more than about 3 fold) | 
[H]/N=C(\N)NN=Cc1cccc(Cl)c1Br [Compound 9, (E)-2-(2-bromo-3-chlorobenzylidene)hydrazine-1-carboximidamide] | 13.6 ± 0.8 µM | R15A (A “selective inhibitor” may be defined as a compound where the difference in KD values between R15A and R15B is greater than 3 fold) | 
[H]/N=C(\N)NN=Cc1cc(Cl)cc(Cl)c1Cl [Compound 10, (E)-2-(2,3,5-trichlorobenzylidene)hydrazine-1-carboximidamide] | 0.391 ± 0.14 µM | R15AB (A PPP1R15A and PPP1R15B inhibitor may be defined as a compound where the difference in KD values between R15A and R15B is no more than about 3 fold) | 
[H]/N=C(\N)NN=Cc1ccc(Cl)nc1Cl [Compound 22, (E)-2-((2,6-dichloropyridin-3-yl)methylene)hydrazine-1-carboximidamide] | 7.62 µM | R15AB (A PPP1R15A and PPP1R15B inhibitor may be defined as a compound where the difference in KD values between R15A and R15B is no more than about 3 fold) | 
[H]/N=C(\N)NN=Cc1cc(F)cc(F)c1Cl [Compound 29, (E)-2-(2-chloro-3,5-difluorobenzylidene)hydrazine-1-carboximidamide] | 7.87 ± 1.48 µM | R15AB (A PPP1R15A and PPP1R15B inhibitor may be defined as a compound where the difference in KD values between R15A and R15B is no more than about 3 fold) | 
[H]/N=C(\N)NN=Cc1ccc(Cl)cc1 [Compound 1, (E)-2-((4-chlorophenyl)methylene)hydrazine-1-carboximidamide] | 8.32 ± 0.14 µM | R15AB (A PPP1R15A and PPP1R15B inhibitor may be defined as a compound where the difference in KD values between R15A and R15B is no more than about 3 fold) | 
[H]/N=C(\N)NN=Cc1ccc(Cl)c(F)c1Cl [Compound 13, (E)-2-(2,4-dichloro-3-fluorobenzylidene)hydrazine-1-carboximidamide] | 4.62 ± 0.59 µM | R15AB (A PPP1R15A and PPP1R15B inhibitor may be defined as a compound where the difference in KD values between R15A and R15B is no more than about 3 fold) | 
[H]/N=C(\N)NN=Cc1ccc(Cl)c(Cl)c1Cl [Compound 6, (E)-2-(2,3,4-trichlorobenzylidene)hydrazine-1-carboximidamide] | 5.43 ± 1.1 µM | R15AB (A PPP1R15A and PPP1R15B inhibitor may be defined as a compound where the difference in KD values between R15A and R15B is no more than about 3 fold) | 
N=C(N)N/N=C/c1cc(Cl)c(Cl)c(Cl)c1 [Compound 3, (E)-2-(3,4,5-trichlorobenzylidene)hydrazine-1-carboximidamide] | 4.49 ± 1.47 µM | R15AB (A PPP1R15A and PPP1R15B inhibitor may be defined as a compound where the difference in KD values between R15A and R15B is no more than about 3 fold) | 
[H]/N=C(\N)NN=Cc1ccc(Cl)c(F)c1 [Compound 8, (E)-2-(4-chloro-3-fluorobenzylidene)hydrazine-1-carboximidamide] | 6.37 ± 1.03 µM | R15AB (A PPP1R15A and PPP1R15B inhibitor may be defined as a compound where the difference in KD values between R15A and R15B is no more than about 3 fold) | 
[H]/N=C(\N)NN=Cc1cc(Cl)ccc1Cl [Compound 26, (E)-2-(2,5-dichlorobenzylidene)hydrazine-1-carboximidamide] | 23.1 ± 0.9 µM | R15AB (A PPP1R15A and PPP1R15B inhibitor may be defined as a compound where the difference in KD values between R15A and R15B is no more than about 3 fold) | 
[H]/N=C(\N)NN=Cc1c(Cl)ccc(Cl)c1Cl [Compound 31, (E)-2-(2,3,6-trichlorobenzylidene)hydrazine-1-carboximidamide] | 11.1 ± 1.6 µM | R15AB (A PPP1R15A and PPP1R15B inhibitor may be defined as a compound where the difference in KD values between R15A and R15B is no more than about 3 fold) | 

— patent US11154519B2, “Inhibitors and their uses” (MEDICAL RESEARCH COUNCIL, priority 2015, dated 2021)
